This note sets out measurements from patent publication US20090023741A1, “ARYL/HETARYLAMIDES AS MODULATORS OF THE EP2 RECEPTOR” (priority 2007, published 2009).

Assay [1] has as its system cumulus-oocyte complexes (cumulus expansion). The assay is described as follows: Cumulus expansion assay in vitro. It is filed as cell-based, mice. To be noted: in competition with PGE2. The procedure:
Folliculogenesis is induced in immature female mice (strain: CD1 (ICR) from Charles River) at an age of 14-18 days by a single dose (intraperitoneal) of 10 I.U. of PMSG (Pregnant Mare Serum Gonadotropine; Sigma G-4877, Lot 68H0909). 47-50 hours after the injection, the ovaries are removed and the cumulus-oocyte complexes are removed. The cumulus complex is not yet expanded at this stage.
The cumulus-oocyte complexes are then incubated with prostaglandin E2 (PGE2) (0.3 μM), vehicle control (ethanol) or test substances for 20-24 hours. Medium: alpha-MEM medium with 0.1 mM IBMX, pyruvates (0.23 mM) glutamines (2 mM), pen/strep 100 IU/ml pen. and 100 μg/ml strep.) and HSA (8 mg/ml)). Cumulus expansion is then established through the division into four stages (according to Vanderhyden et al. Dev Biol. 1990 August; 140(2):307-317).

The target of assay [2] is T1, EP2 subtype of the human PGE2 receptor (Homo sapiens, UniProt P43116).
T1 construct: host or cells: cells in a cell culture plate
The assay is described as follows: cAMP antagonism assay (HTRF, PGE2-stimulated cells). It is filed as cell-based. To be noted: in presence of PGE2. As for the experimental part: (§1) The binding of PGE2 to the EP2 subtype of the human PGE2 receptor induces activation of membrane-associated adenylate cyclases and leads to the formation of cAMP. In the presence of the phosphodiesterase inhibitor IBMX, cAMP which has accumulated due to this stimulation and been released by cell lysis is employed in a competitive detection method. In this assay, the cAMP in the lysate competes with cAMP-XL665 for binding of an Eu cryptate-labelled anti-cAMP antibody.
(§2) The two signals are measured in a suitable measuring instrument with a time lag, i.e. after the background fluorescence has declined.
(§3) The substance solutions (0.75 μl) introduced into an assay plate and 30% DMSO are dissolved in 16 μl of a KRSB+IBMX stimulation solution (1× Krebs-Ringer Bicarbonate Buffer; Sigma-Aldrich # K-4002; including 750 μM 3-isobutyl-1-methylxanthine Sigma-Aldrich # I-7018), and then 15 μl thereof are transferred into a media-free cell culture plate which has been washed with KRSB shortly beforehand.
After preincubation at room temperature (RT) for 30 minutes, 5 μl of a 4×PGE2 solution (11 nM) are added, and incubation is carried out in the presence of the agonist at RT for a further 60 min (volume: ˜20 μl) before the reaction is then stopped by adding 5 μl of lysis buffer and incubated at RT for a further 20 min (volume: 25 μl). The cell lysate is then transferred into a measuring plate and measured in accordance with the manufacturer's information (cyclic AMP kit Cisbio International # 62AMPPEC).
Background: Time-resolved FRET reads energy transfer from a long-lived donor to a nearby acceptor.

Assay [3] addresses T1, EP2 subtype of the human PGE2 receptor. Nature of the assay: cAMP agonism assay (cellular agonism test). It is filed as cell-based. The conditions noted are these: without PGE2. As for the experimental part: as §1, §2, §3
After incubation at room temperature (RT; volume: ˜15 μl) for 60 minutes, the reaction is then stopped by adding 5 μl of lysis buffer and incubated at RT for a further 20 min (volume: ˜20 μl). The cell lysate is then transferred into a measuring plate and measured in accordance with the manufacturer's information (cyclic AMP kit Cisbio International # 62AMPPEC).

T1 sequence (P43116 whole entry): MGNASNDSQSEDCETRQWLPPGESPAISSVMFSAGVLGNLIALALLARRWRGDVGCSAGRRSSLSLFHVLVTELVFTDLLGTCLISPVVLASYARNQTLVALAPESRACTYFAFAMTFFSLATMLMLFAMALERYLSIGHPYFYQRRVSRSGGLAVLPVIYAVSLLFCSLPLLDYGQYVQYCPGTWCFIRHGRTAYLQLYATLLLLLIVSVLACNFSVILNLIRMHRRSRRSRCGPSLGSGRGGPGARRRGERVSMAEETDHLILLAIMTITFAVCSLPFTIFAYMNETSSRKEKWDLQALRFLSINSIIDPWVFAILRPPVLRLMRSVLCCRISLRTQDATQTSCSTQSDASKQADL

Regarding `CC(C)Oc1ccc2c(=O)c3cc(C(=O)O)ccc3oc2c1` [AH 6809, reference compound], the “inhibition of cumulus expansion” value in assay [1] (concentration 100-200 μM) is listed as approximately 30%.

By IC50 is commonly meant the concentration at which inhibition is half-maximal. Consider `Cc1[nH]c2c(F)ccc(C)c2c1CCNC(=O)c1ccc(C(F)(F)F)cc1` [Example 6, N-[2-(7-Fluoro-2,4-dimethyl-1H-indol-3-yl)ethyl]-4-trifluoromethylbenzamide], for which the IC50 in assay [2] is 1500 nM.

Usually inhibition stands for the relative decrease from the control value, in per cent. Low values mean a response near the control, high ones a response far below the control. In assay [1] (Mus musculus, concentration 10 μM), `Cc1[nH]c2c(F)ccc(C)c2c1CCNC(=O)c1ccc(-c2ccc(F)cc2)cc1` [Example 29, 4′-Fluorobiphenyl-4-carboxylic acid [2-(7-fluoro-2,4-dimethyl-1H-indol-3-yl)ethyl]amide] registered an inhibition at 10 µM of approximately 20%. In addition, in assay [2], the IC50 came out at 1200 nM. Also, the “effect in the cellular agonism test” value in assay [3] was “no inhibition”.

Regarding `COc1cc(C(=O)NCCc2c(C)[nH]c3c(F)ccc(C)c23)cc(OC)c1OC` [Example 2, N-[2-(7-Fluoro-2,4-dimethyl-1H-indol-3-yl)ethyl]-3,4,5-trimethoxybenzamide], the IC50 in assay [2] was 6800 nM.
